One data set is described as follows: physchem. Conditions: organic solvent or mixture, thermodynamic from solid, Solubility In DMI (mg/ml).
For data set [1] the following is noted: solvent dimethyl isosorbide (DMI); dissolved with gentle heating as needed.

Experimental findings from patent US20080171687A1, “Compositions And Methods For The Preparation And Administration Of Poorly Water Soluble Drugs” (Abraxis Bioscience, Inc., priority 2004, published 2008) are described below.

≈ marks a conversion by molar mass, not a printed value. Some results are limits rather than exact numbers.

Consider `CC[C@@]1(O)C(=O)OCc2c1cc1n(c2=O)Cc2cc3ccccc3nc2-1` [Campothecin], for which, in the data set “physchem” (solvent dimethyl isosorbide (DMI), dissolved with gentle heating as needed), the solubility is less than 1 mg/mL. Take `CC(=O)O[C@@]12CO[C@@H]1C[C@H](O)[C@@]1(C)C(=O)[C@H](O)C3=C(C)[C@@H](OC(=O)[C@H](O)[C@@H](NC(=O)OC(C)(C)C)c4ccccc4)C[C@@](O)([C@@H](OC(=O)c4ccccc4)[C@H]21)C3(C)C` [Docetaxel]: in “physchem”, the solubility came out at 90 mg/mL (≈ 111 mM).

As to `CCC(C)n1ncn(-c2ccc(N3CCN(c4ccc(OCC5COC(Cn6cncn6)(c6ccc(Cl)cc6Cl)O5)cc4)CC3)cc2)c1=O` (centres unmarked) [Itraconazole], the solubility in “physchem” was 9.6 mg/mL (≈ 13.6 mM). Turning to `COc1ccc2[nH]cc(CCNC(C)=O)c2c1` [Melatonin], in the data set “physchem”, the solubility worked out at 192 mg/mL (≈ 827 mM). `COc1ccc2[nH]c([S+]([O-])Cc3ncc(C)c(OC)c3C)nc2c1` (centres unmarked) [Omeprazole]: in the data set “physchem”, the solubility came to 17.4 mg/mL (≈ 50.4 mM). `CC(C)c1cccc(C(C)C)c1O` [Propofol]: in data set [1], the “Solubility In DMI (mg/ml)” value is recorded as “completely”. Take `CO[C@H]1C[C@@H]2CC[C@@H](C)[C@@](O)(O2)C(=O)C(=O)N2CCCC[C@H]2C(=O)O[C@H]([C@H](C)C[C@@H]2CC[C@@H](O)[C@H](OC)C2)CC(=O)[C@H](C)/C=C(\C)[C@@H](O)[C@@H](OC)C(=O)[C@H](C)C[C@H](C)/C=C/C=C/C=C/1C` [Rapamycin]: the solubility in “physchem” was 121 mg/mL (≈ 132 mM).

`CCc1c2c(nc3ccc(O)cc13)-c1cc3c(c(=O)n1C2)COC(=O)[C@]3(O)CC` [SN-38]: in data set [1], the “Solubility In DMI” value was less than 1 mg/mL.
